From patent US20050064005A1, “Active agent delivery systems including a miscible polymer blend, medical devices, and methods” (priority 2003, published 2005)

Experiment: In vitro elution kinetics of dual active agent release from coated stents in PBS at 37° C.
Type: physicochemical
Procedure: The in vitro elution kinetics of dual release was carried out in PBS and at 37° C. The stent was crimped on a stent delivery system and then expanded. After expansion, the physical aspects of the stent were noted prior to placing the stent inside a vial containing 3 milliliters (ml) of PBS. The vial was placed in a shaker at 37° C. and at certain time intervals; the whole solution (3 ml) was removed and replaced with fresh PBS. The amount of each active agent in each dual release system was determined by UV-Vis spectrophotometer using wavelengths of 250 nanometers (nm) for mycophenolic acid and 359 nm for sulfasalazine and solving simultaneous equations of active agent mixtures.

release kinetics of the active agent in the inner layer (stent system of FIG. 1 with TECOPLAST middle barrier layer (FIG. 3) versus without barrier (FIG. 2), PBS, 37° C.)	Compound	release rate of sulfasalazine (from blends of TECOPLAST and TECOPHILIC polyurethanes as outer layer (FIG. 4))
slowed down significantly	COc1c(C)c2c(c(O)c1C/C=C(\C)CCC(=O)O)C(=O)OC2 [mycophenolic acid]	
	O=C(O)c1cc(/N=N/c2ccc(S(=O)(=O)Nc3ccccn3)cc2)ccc1O [sulfasalazine]	increased as the percentage of TECOPHILIC polyurethane in the blend increased
